Experimental data taken from US6268537A, “Method of synthesis of lithium substituted borohydride reagents and method of synthesis of reactive lithium hydride” (priority 1999, dated 2001).

Assay: solubility of LiH in THF
Conditions: room temperature

For `[H-].[Li+]` [LiH, lithium hydride], the “solubility of LiH in THF” value was “less than 0.00089 mol per liter”.
